Literature values, collected in patent US20060183719A1 (priority 2005, published 2006).
Read-outs that look alike come from different tables or passages of the source.

Row | absorption (administered orally) | absorption (in vivo, po) | Structure (SMILES)
1 | about 90% |  | C[C@H]1c2cccc(O)c2C(=O)C2=C(O)[C@]3(O)C(=O)C(C(N)=O)=C(O)[C@@H](N(C)C)[C@@H]3[C@@H](O)[C@@H]21 [doxycycline]
2 |  | about 90% | CN(C)c1ccc(O)c2c1CC1CC3C(N(C)C)C(O)=C(C(N)=O)C(=O)C3(O)C(O)=C1C2=O (centres unmarked) [minocycline]
